Measurements: patent publication US20110021776A1, “COMPOSITIONS FOR THE TREATMENT OF CENTRAL NERVOUS SYSTEM DISEASES AND DISORDERS” (MediProPharma, Inc., priority 2006, published 2011)
“And” between values parts separate entries of the source, which are not always exact repeats. Identical values can stand only once. Like-named read-outs stand apart in the source and are kept apart here. Marks after values point to notes of the source that are not given here.

Tests used:
[1] = Brain/plasma pharmacokinetics, single i.v. bolus in rats; type: in vivo, Sprague-Dawley rats; conditions: 10 mg/kg bolus i.v., normal rats; for Kp / concentration at 0.25 h / concentration at 1 h / concentration at 4 h: intravenous; for Kp: read-out: BAUC/PAUC Ratio; for AUC(0-t): read-out: AUC0-t of Plasma
Protocol: (§1) (IV) Pharmacokinetic Studies
(§2) The pharmacokinetic studies in Sprague-Dawley rats were performed using the protocols developed by WuXi AppTec (St. Paul, Minn., USA, and Shanghai, China. http://www.apptecls.com/).
The brain exposure of the compound of Example 1 is about […] higher than that required for inhibition of DYRK1A, with a Kd and IC50 at about 1 uM, or 280 ng/mL.

[2] = Plasma pharmacokinetics, single dose in rats; type: in vivo, Sprague-Dawley rats; conditions: normal rats; for MRT inf: read-out: MRT0-inf; for MRT last: read-out: MRT0-last; for Vd: read-out: Vdss
Protocol: as §1, §2

human DYRK1A [3] = target: T1, human DYRK1A (Homo sapiens, UniProt Q13627); assay: Human DYRK1A kinase competitive binding assay (Ambit Biosciences); set-up: Ambit Biosciences (San Diego, Calif., USA), contract assay provider
Protocol: (I) Human DYRK1A Kinase Binding Assay and Binding Constant Measurements. Human DYRK1A kinase profiles in a competitive binding assay were performed by Ambit Biosciences (San Diego, Calif., USA). Activity was recorded via a competition binding assay of human DYRK1A kinase that was fused to a proprietary tag. Measurements of the amount of DYRK1A kinase bound to an immobilized, active-site directed ligand in the presence and absence of the test compound provided a percentage of DMSO control for binding of ligand. Activities between 1% and 10% were selected for Kd determination. Dendrogram representations were generated by an in-house visualization tool designated as PhyloChem. In certain embodiments, compounds have a low Kd value in the DYRK1A kinase binding assay. […] The human DYRK1A kinase binding assay has been used to test the compounds of the Examples disclosed.

human DYRK1A [4] = target: T1, human DYRK1A; assay: Human DYRK1A kinase functional assay (CEREP, LANCE detection); type: biochemical; set-up: CEREP (France), contract assay provider
Protocol: (II) Human DYRK1A Kinase Functional Assay and IC50 Measurements.
Compound profiling in a human DYRK1A kinase functional assay was performed by CEREP (France). The effects of compounds on the activity of human DYRK1A were evaluated and quantified by measuring the phosphorylation of the substrate Ulight-CFFKNIVTPRTPPPSQGK-amide (MBP) using a human recombinant enzyme and the LANCE® detection method, as described by Himpel et al, J. Biol. Chem., 275: 2431 (2000). The inhibitory activity of the compounds was expressed as a percent inhibition of the control kinase activity. Activities of the compounds at 50% or higher inhibition were selected for IC50 determination. Compounds were tested at 6 concentrations in duplicate for IC50 determination. The standard inhibitory reference compound was staurosporine, which was tested in each experiment at 8 concentrations to obtain an inhibition curve from which its IC50 value was calculated.
In certain embodiments, compounds have a low IC50 value in the DYRK1A kinase functional assay. […] The human DYRK1A kinase functional assay has been used to test the compounds of the Examples disclosed.

[5] = Sprague-Dawley, rat, iv, i.v. 2 mg/kg, plasma
[6] = Sprague-Dawley, rat, iv, i.v. 10 mg/kg, plasma
[7] = Sprague-Dawley, rat, plasma, iv, i.v. 2 mg/kg
[8] = Sprague-Dawley, rat, plasma, iv, i.v. 10 mg/kg
[9] = Sprague-Dawley, rat, po, p.o. 10 mg/kg, plasma

For `Cc1nc2c(c3c1[nH]c1ccccc13)C(=O)CC(C)(C)C2` [Example 1, 3,3,6-trimethyl-2,3,4,7-tetrahydroindolo[2,3-c]quinolin-1-one], which melting point is on record?
Its melting point is 178.3 to 180.7 °C.

And the “AUC0-t of Brain” value ([1]; t = 0.25 h)?
Its value is 2409 ng·h/g.

What about the “AUC0-t of Brain” value ([1]; t = 1 h) of the same molecule?
Its value is 4727 ng·h/g.

What about the “AUC0-t of Brain” value ([1]; t = 4 h) of the same molecule?
The value was 5924 ng·h/g.

What about the “AUC0-t of Brain” value ([1]; t = 8 h, the data is the value of AUC(inf)) of the same molecule?
Its value is 6020^b ng · h/g.

And the “AUC0-t of Brain” value ([1]; t = 24 h, the data is the value of AUC(inf))?
The value was 6020^b ng · h/g.

What about the Kp ([1]; Sprague-Dawley, rat, brain and plasma, 10 mg/kg, t = 0.25 h, BrainAUC(0-t)/PlasmaAUC(0-t)) of the same molecule?
The Kp was 3.04.

And the Kp ([1]; Sprague-Dawley, rat, brain and plasma, 10 mg/kg, t = 1 h, BrainAUC(0-t)/PlasmaAUC(0-t))?
The Kp was 2.81.

What about the Kp at 0.25 h ([1]; Sprague-Dawley, rat, brain and plasma, iv, 10 mg/kg, time 0.25 h, read-out: Brain/Plasma Ratio) of the same molecule?
The Kp at 0.25 h was 2.89.

And the Kp at 1 h ([1]; Sprague-Dawley, rat, brain and plasma, iv, 10 mg/kg, time 1 h, read-out: Brain/Plasma Ratio)?
The Kp at 1 h was 2.17.

And the Kp ([1]; Sprague-Dawley, rat, brain, 10 mg/kg, t = 4 h, BrainAUC(0-t)/PlasmaAUC(0-t))?
The Kp was 2.6.

What about the Kp ([1]; Sprague-Dawley, rat, brain, 10 mg/kg, t = 8 h) of the same molecule?
Its Kp is 2.56.

What about the Kp ([1]; Sprague-Dawley, rat, brain, 10 mg/kg, t = 24 h) of the same molecule?
The Kp was 2.56.

What about the concentration at 0.25 h ([1]; Sprague-Dawley, rat, brain, time 0.25 h, read-out: Mean concentration in brain) of the same molecule?
The concentration at 0.25 h was 6900 ng/mL.

And the concentration at 1 h ([1]; Sprague-Dawley, rat, brain, time 1 h, read-out: Mean concentration in brain)?
The concentration at 1 h was 1030 ng/mL.

What about the concentration at 4 h ([1]; Sprague-Dawley, rat, brain, time 4 h, read-out: Mean concentration in brain) of the same molecule?
The concentration at 4 h was 99.4 ng/mL.

And the Kp at 4 h ([1]; Sprague-Dawley, rat, brain, iv, 10 mg/kg, time 4 h, read-out: Brain/Plasma Ratio)?
Its Kp at 4 h is 1.69.

What about the concentration at 0.25 h ([1]; Sprague-Dawley, rat, plasma, time 0.25 h, read-out: Mean concentration in plasma) of the same molecule?
The concentration at 0.25 h was 2390 ng/mL.

And the concentration at 1 h ([1]; Sprague-Dawley, rat, plasma, time 1 h, read-out: Mean concentration in plasma)?
The concentration at 1 h was 476 ng/mL.

And the concentration at 4 h ([1]; Sprague-Dawley, rat, plasma, time 4 h, read-out: Mean concentration in plasma)?
The concentration at 4 h was 58.7 ng/mL.

And the AUC(0-t) ([1]; Sprague-Dawley, rat, plasma, iv, 10 mg/kg, t = 0.25 h)?
Its AUC(0-t) is 792 ng·h/mL.

And the AUC(0-t) ([1]; Sprague-Dawley, rat, plasma, iv, 10 mg/kg, t = 1 h)?
Its AUC(0-t) is 1680 ng·h/mL.

What about the AUC(0-t) ([1]; Sprague-Dawley, rat, plasma, iv, 10 mg/kg, t = 4 h) of the same molecule?
The AUC(0-t) was 2280 ng·h/mL.

What about the AUC(0-t) ([1]; Sprague-Dawley, rat, plasma, iv, 10 mg/kg, t = 8 h, the data is the value of AUC(inf)) of the same molecule?
Its AUC(0-t) is 2350 ng·h/mL.

And the AUC(0-t) ([1]; Sprague-Dawley, rat, plasma, iv, 10 mg/kg, t = 24 h, the data is the value of AUC(inf))?
Its AUC(0-t) is 2350 ng·h/mL.

And the AUC(0-inf) [2, 5]?
The AUC(0-inf) was 316 ng·h/mL.

And the AUC(0-t) [2, 5]?
The AUC(0-t) was 312 ng·h/mL.

And the half-life [2, 5]?
The half-life was 22.2 min.

And the MRT inf [2, 5]?
Its MRT inf is 21.9 min.

And the MRT last [2, 5]?
The MRT last was 19.9 min.

What about the AUC(0-inf) [2, 6] of the same molecule?
The AUC(0-inf) was 2350 ng·h/mL.

And the AUC(0-t) [2, 6]?
Its AUC(0-t) is 2280 ng·h/mL.

And the half-life [2, 6]?
The half-life was 45.9 min.

And the MRT inf [2, 6]?
Its MRT inf is 53.6 min.

What about the MRT last [2, 6] of the same molecule?
Its MRT last is 46.4 min.

What about the clearance [2, 7] of the same molecule?
Its clearance is 106 mL/min/kg.

What about the Vd [2, 7] of the same molecule?
The Vd was 2.31 L/kg.

And the clearance [2, 8]?
The clearance was 71.1 mL/min/kg.

And the Vd [2, 8]?
Its Vd is 3.81 L/kg.

What about the bioavailability ([2]; Sprague-Dawley, rat, plasma, po, p.o. 10 mg/kg, calculated using AUC0-inf, read-out: F (absolute oral bioavailability)) of the same molecule?
Its bioavailability is 34%.

And the AUC(0-inf) [2, 9]?
The AUC(0-inf) was 544 ng·h/mL.

What about the AUC(0-t) [2, 9] of the same molecule?
Its AUC(0-t) is 541 ng·h/mL.

And the Cmax [2, 9]?
Its Cmax is 1860 ng/mL.

And the Tmax [2, 9]?
The Tmax was 15 min.

What about the half-life [2, 9] of the same molecule?
The half-life was 49.3 min.

And the MRT inf [2, 9]?
Its MRT inf is 39.3 min.

What about the MRT last [2, 9] of the same molecule?
The MRT last was 36.6 min.

And the AUCExtra ([2]; i.v. 2 mg/kg, plasma)?
The AUCExtra was 1.49%.

And the Co ([2]; i.v. 2 mg/kg, plasma)?
The Co was 1665 ng/mL.

And the CL0-last ([2]; i.v. 10 mg/kg)?
The CL0-last was 73.1 mL/min/kg.

What about the Vdss0-last ([2]; i.v. 10 mg/kg) of the same molecule?
The Vdss0-last was 3.39 L/kg.

And the Co ([2]; i.v. 10 mg/kg, plasma)?
The Co was 4100 ng/mL.

And the AUCExtra ([2]; p.o. 10 mg/kg, plasma)?
Its AUCExtra is 0.672%.

And the Kd (human DYRK1A [3])?
Its Kd is < 10000 nM and < 1000 nM and ~1000 nM.

What about the IC50 (human DYRK1A [4]) of the same molecule?
The IC50 was < 2000 nM and ~1000 nM.
